The term CC50 denotes the concentration giving 50% cytotoxicity.

The record followed here is patent US9682994B2, “Inhibitors of retroviral replication” (The Scripps Research Institute, priority 2011, dated 2017).

One data set concerns NF-kB reporter construct. The experiment in a line: TNF-α activation of NF-kB luciferase reporter in TE671 cells. Type of data set: cell-based. Here is the method: FIG. 8B: TE671 cells were transfected with an NF-kB luciferase reporter plasmid. The following day cells were treated with TNF-α in presence or absence of dCA. Cells were lysed 5 hours later and Luciferase activity was measured as in FIG. 8A.
TE671 cells were plated at 6.25×10^4 per well in a 24-well plate. Cells were transfected twenty-four hours later with either 200 ng or 400 ng of NF-kB-Luc (Promega, Cat No. E8491) using Fugene 6 (Roche) per manufacturer's instruction. […] Cells were lysed 5 hours later with 1× Lysis Buffer and luciferase activity was measured using the luciferase Assay System (Promega) on a Berthhold luminometer. Protein concentration was determined by Bradford assay. Results corresponding to the adjustment of the luciferase activity per protein concentration of each sample are shown as Relative light units (RLU). Experiments were performed in triplicate.
For orientation: A reporter such as luciferase makes a cellular process visible.

Another data set deals with Tat. The experiment in a line: Tat-flag sub-cellular localization by immunofluorescence. Type of data set: cell-based, HIV-1. The settings on record: HeLa-CD4 cells transfected with Tat-flag. Here is the method:
Flag epitope-tagged Tat was recognized with anti-flag and AlexaFluor 568 anti-IgG. Transfections were performed in HeLa-CD4 cells. Magnification 300×.
Flag recognized with anti-flag and AlexaFluor 568 anti-IgG antibodies. Endogenous fibrillarin stained with anti-fibrillarin and FITC-anti-IgG antibodies.
HeLa cells were grown on fibronectin treated coverslips and transfected with the indicated plasmids. Following transfection, cells were treated with DMSO or dCA. Cells were then fixed with 3.7% formaldehyde. After fixation, the cells were permeabilized with 0.1% triton X-100 in PBS with 5% FBS. Primary antibodies (mouse α-FLAG M2 (Sigma), rabbit α-Fibrillarin C13C3 (Cell Signaling), and/or rabbit α-Cyclin T1 H-245 (Santa Cruz)) were added along with the permeabilization solution and incubated at room temperature for 1 hour. The cells were washed with PBS and incubated with 1:500 dilution of Alexa Fluor conjugated secondary antibodies in PBS containing 5% FBS for 1 hour in the dark. […]
Given that dCA interacts with Tat via its basic domain, which is also the nucleolar localization signal (NoLS), it was questioned whether dCA impacts Tat localization. […] The Tat basic mutant was analyzed in parallel, and this protein was completely excluded from the nucleolus both in the presence or absence of dCA.

In data set [1] the test system is RNAPII occupancy of the HIV promoter and ORF. The experiment in a line: ChIP of RNAPII on HIV promoter and ORF. Type of data set: cell-based, HIV-1. The settings on record: 4 days treatment. Here is the method: FIG. 3C: ChIP assay of the HIV promoter. […] Lysates were sonicated, the crosslinks were reversed and RNAPII was immunoprecipitated. DNA was measured by qPCR using the indicated set of primers. ChIP values are represented as percentages of input. Error bars, ±s.d. (n=3). *P<0.05; **P<0.01 (unpaired t-test).
Cells were fixed with formaldehyde (1% [vol/vol]) to crosslink the chromatin and incubated at room temperature for 10 min. Crosslinking was arrested by adding glycine[0.125 M] and incubated for an additional 5 min at room temperature. Cells were then pelleted, washed twice with phosphate-buffered saline, ressuspended in SDS lysis buffer, and incubated 10 min on ice. All solutions used prior to the collection of chromatin-antibody complexes contained protease and phosphatase inhibitor cocktail. Cell lysates were sonicated 4 times for 10 s bursts on ice. The sheared chromatin was diluted by the addition of 3 volumes of ChIP dilution buffer (0.01% SDS, 1.1% Triton X-100, 1.2 mM EDTA, 16.7 mM Tris-HCl (pH 8.1), 167 mM NaCl) and pre-cleared with salmon sperm DNA-protein A/G agarose slurry for 2 h. […] The relative proportions of co-immunoprecipitated DNA fragments were determined on the basis of the threshold cycle (CT) for each PCR product. […]

For another data set, the system named is PBMCs. The experiment in a line: Viability of uninfected PBMCs (MTT, ViViD/Annexin V). Type of data set: cell-based, human. Here is the method: FIG. 13A: Mitochondrial metabolic activity.
Viability was measured after 24 h and 72 h of culture. PBMCs were stained with FITC-labeled antibody to CD3 (555339), Alexa 700-labeled antibody to CD4 (557922), PerCP-Cy5.5-labeled antibody to CD8 (341051), V450-labeled antibody to CD14 (560349), V450-labeled antibody to CD19 (560353), APC-labeled antibody to AnnexinV (550474) and Live/Dead Aqua blue (L34957). All antibodies were purchased from BD Biosciences except for Live/Dead Aqua blue (Invitrogen). Analyses were performed on a LSRII (BD Bioscience) flow cytometer.

A short description of data set [2]: Hepatic microsomal stability, mouse. As to conditions: 1 μM, 0.2-1 mg/ml microsomes, NADPH 1 mM. Type of data set: in vitro ADME.
Text: In vitro studies compared murine and human hepatic microsomes (150 donor mixed male/female pool).
Data set [3] in a line: Aqueous solubility / formulation in water. Type of data set: physicochemical. The settings on record: formulated 1 mg/mL in water.

Entries after “also recorded” stand apart in the source; their conditions may differ.

As for `CN(C)[C@H]1C[C@@]23CC[C@@]4(O2)C(=CC[C@]2(C)C(c5ccc6ccncc6c5)=CC[C@H]24)C=C3[C@@H](O)[C@@H]1O` [dCA, didehydro-Cortistatin A], the “TNFα activation of an NF-κB reporter construct” value in the data set on NF-kB reporter construct was “no effect”. For the same compound, in the data set on Tat, the “effect on Tat localization” value is “redistribution of Tat to the periphery of the nucleolus”. The “association of RNAPII with the HIV promoter and ORF” value in data set [1] is listed as “significantly decreased”. Moreover, the CC50 in the data set with PBMCs was determined as 100 µM. Further, in data set [2], the “T1/2 hepatic microsomes, Mouse” value is 3.02 h. The aqueous solubility result in data set [3] was “high aqueous solubility; also recorded: highly soluble in water”.
